{"source": "patent US7253155B2", "about": "“Combinations for the treatment of immunoinflammatory disorders” (CombinatoRx, Inc., priority 2001, dated 2007)", "tested_on": "TNFα secretion", "experiment": "TNFα ELISA assay for TNFα suppressing activity in PMA/ionomycin-stimulated human white blood cells (pairwise combination dilution matrix)", "format": "cell-based", "procedure": "Stock solutions at 16 mg/ml of dipyridamole, and 1.6 mg/ml of fludrocortisone acetate (Sigma-Aldrich, St. Louis, Mo.; catalog numbers D9766 and F6127, respectively) were made in dimethylsulfoxide (DMSO). The dipyridamole master plates were made by adding 25 μl of the concentrated stock solution to columns 3, 9, and 15 (rows C through N) of a polypropylene 384-well storage plate that had been pre-filled with 75 μl of anhydrous DMSO. Using a TomTec Quadra Plus liquid handler, the 25 μl of dipyridamole stock solution was serially diluted four times into the adjacent columns (columns 4-7, 10-13, 16-19). […] The fludrocortisone master plates were made by adding 25 μl of the concentrated stock solution to the appropriate wells (row C, columns 3-8; row C, columns 9-14; row C, columns 15-20; row I, columns 3-8; row I, columns 9-14; row I, columns 15-20) of the appropriate master polypropylene 384-well storage plate. These master plates had been pre-filled with 75 μl of anhydrous DMSO. Using the TomTec Quadra Plus liquid handler, the 25 μl was serially diluted four times in the adjacent rows (rows D-G, and J-M). […] Master plates were sealed and stored at −20 C. until ready for use.\nThe final dipyridamole/fludrocortisone combination plates were generated by transferring 1 μl from each of the dipyridamole and fludrocortisone master plates to a dilution plate containing 100 μl of media (RPMI; Gibco BRL, #11875-085), 10% Fetal Bovine Serum (Gibco BRL, #25140-097), 2% Penicillin/Streptomycin (Gibco BRL, #15140-122)) using the TomTec Quadra Plus liquid handler. This dilution plate was then mixed and a 10 μl aliquot transferred to the final assay plate, which had been pre-filled with 40 μl/well RPMI media containing the appropriate stimulant to activate TNFα secretion (see below).\nThe compound dilution matrix was assayed using a TNFα ELISA method. Briefly, a 100 μl suspension of diluted human white blood cells contained within each well of a polystyrene 384-well plate (NalgeNunc) was stimulated to secrete TNFα by treatment with a final concentration of 10 ng/ml phorbol 12-myristate 13-acetate (Sigma) and […] ionomycin (Sigma). Various concentrations of each test compound were added at the time of stimulation. After 16-18 hours of incubation at 37° C. in a humidified incubator, the plate was centrifuged and the supernatant transferred to a white opaque polystyrene 384 well plate (NalgeNunc, Maxisorb) coated with an anti-TNF antibody (PharMingen, #18631D). After a two-hour incubation, the plate was washed (Tecan PowerWasher 384) with phosphate buffered saline (PBS) containing 0.1% Tween 20 (polyoxyethylene sorbitan monolaurate) and incubated for an additional one hour with another anti-TNF antibody that was biotin labeled (PharMingen, 18642D) and horseradish peroxidase (HRP) coupled to strepavidin (PharMingen, #13047E). After the plate was washed with 0.1% Tween 20/PBS, the HRP substrate (which contains luminol, hydrogen peroxide, and an enhancer such as para-iodophenol) was added to each well and light intensity measured using a LJL Analyst luminometer. Control wells contained a final concentration of 1 μg/ml cyclosporin A (Sigma).\nA compound matrix of dipyridamole and prednisolone were prepared according to the method of Example 1. The initial stock solution of dipyridamole was 16 mg/ml, and prednisolone was 1.6 mg/ml.\nThe compound dilution matrix of Example 3, was assayed using the TNFα ELISA method of Example 2.", "note": "“And” between values parts separate entries of the source, which are not always exact repeats. Identical values can stand only once."}
{"smiles": "OCCN(CCO)c1nc(N2CCCCC2)c2nc(N(CCO)CCO)nc(N3CCCCC3)c2n1", "note": "[Dipyridamole, 2,6-bis(diethanolamino)-4,8-dipiperidinopyrimido(5,4-d)pyrimidine]", "values": [{"measurement": "% TNFα suppression from P/I-induced white blood cells", "setting": "primary screen, fludrocortisone 0.000 μM, dipyridamole 0.031 μM", "result": 3.68, "unit": "%"}, {"measurement": "% TNFα suppression from P/I-induced white blood cells", "setting": "primary screen, fludrocortisone 0.000 μM, dipyridamole 0.124 μM", "result": 9.08, "unit": "%"}, {"measurement": "% TNFα suppression from P/I-induced white blood cells", "setting": "primary screen, fludrocortisone 0.000 μM, dipyridamole 0.495 μM", "result": 13.21, "unit": "%"}, {"measurement": "% TNFα suppression from P/I-induced white blood cells", "setting": "primary screen, fludrocortisone 0.000 μM, dipyridamole 1.982 μM", "result": 35.24, "unit": "%"}, {"measurement": "% TNFα suppression from P/I-induced white blood cells", "setting": "primary screen, fludrocortisone 0.000 μM, dipyridamole 7.927 μM", "result": 66.37, "unit": "%"}, {"measurement": "% TNFα suppression from P/I-induced white blood cells", "setting": "primary screen, prednisolone 0.000 μM, dipyridamole 0.031 μM", "result": 11.24, "unit": "%"}, {"measurement": "% TNFα suppression from P/I-induced white blood cells", "setting": "primary screen, prednisolone 0.000 μM, dipyridamole 0.12 μM", "result": 12.63, "unit": "%"}, {"measurement": "% TNFα suppression from P/I-induced white blood cells", "setting": "primary screen, prednisolone 0.000 μM, dipyridamole 0.50 μM", "result": 18.30, "unit": "%"}, {"measurement": "% TNFα suppression from P/I-induced white blood cells", "setting": "primary screen, prednisolone 0.000 μM, dipyridamole 1.98 μM", "result": 27.21, "unit": "%"}, {"measurement": "% TNFα suppression from P/I-induced white blood cells", "setting": "primary screen, prednisolone 0.000 μM, dipyridamole 7.93 μM", "result": 47.51, "unit": "%"}, {"measurement": "% TNFα suppression from P/I-induced white blood cells", "setting": "secondary screen, fludrocortisone 0.000 μM, dipyridamole 0.031 μM", "result": 10.16, "unit": "%"}, {"measurement": "% TNFα suppression from P/I-induced white blood cells", "setting": "secondary screen, fludrocortisone 0.000 μM, dipyridamole 0.062 μM", "result": 9.43, "unit": "%"}, {"measurement": "% TNFα suppression from P/I-induced white blood cells", "setting": "secondary screen, fludrocortisone 0.000 μM, dipyridamole 0.124 μM", "result": 12.13, "unit": "%"}, {"measurement": "% TNFα suppression from P/I-induced white blood cells", "setting": "secondary screen, fludrocortisone 0.000 μM, dipyridamole 0.248 μM", "result": 23.02, "unit": "%"}, {"measurement": "% TNFα suppression from P/I-induced white blood cells", "setting": "secondary screen, fludrocortisone 0.000 μM, dipyridamole 0.495 μM", "result": 33.73, "unit": "%"}, {"measurement": "% TNFα suppression from P/I-induced white blood cells", "setting": "secondary screen, fludrocortisone 0.000 μM, dipyridamole 0.991 μM", "result": 48.20, "unit": "%"}, {"measurement": "% TNFα suppression from P/I-induced white blood cells", "setting": "secondary screen, fludrocortisone 0.000 μM, dipyridamole 1.982 μM", "result": 62.36, "unit": "%"}, {"measurement": "% TNFα suppression from P/I-induced white blood cells", "setting": "secondary screen, fludrocortisone 0.000 μM, dipyridamole 3.964 μM", "result": 66.54, "unit": "%"}, {"measurement": "% TNFα suppression from P/I-induced white blood cells", "setting": "secondary screen, fludrocortisone 0.000 μM, dipyridamole 7.927 μM", "result": 78.11, "unit": "%"}]}
{"smiles": "C[C@]12C=CC(=O)C=C1CC[C@@H]1[C@@H]2[C@@H](O)C[C@@]2(C)[C@H]1CC[C@]2(O)C(=O)CO", "note": "[Prednisolone, 11beta,17alpha,21-trihydroxy-1,4-pregnadiene-3,20-dione]", "values": [{"measurement": "% TNFα suppression from P/I-induced white blood cells", "setting": "primary screen, prednisolone 0.001 μM, dipyridamole 0.00 μM", "result": 4.86, "unit": "%"}, {"measurement": "% TNFα suppression from P/I-induced white blood cells", "setting": "primary screen, prednisolone 0.004 μM, dipyridamole 0.00 μM", "result": 19.99, "unit": "%"}, {"measurement": "% TNFα suppression from P/I-induced white blood cells", "setting": "primary screen, prednisolone 0.016 μM, dipyridamole 0.00 μM", "result": 37.84, "unit": "%"}, {"measurement": "% TNFα suppression from P/I-induced white blood cells", "setting": "primary screen, prednisolone 0.063 μM, dipyridamole 0.00 μM", "result": 33.00, "unit": "%"}, {"measurement": "% TNFα suppression from P/I-induced white blood cells", "setting": "primary screen, prednisolone 0.250 μM, dipyridamole 0.00 μM", "result": "38% and 38.25%"}]}
